Source: patent US10800784B2, “Nitrogen-containing heterocyclic amide compound and pharmaceutical use thereof” (Japan Tobacco Inc., priority 2018, dated 2020)

Tests used:
human PDHK2 (hPDHK2) = human PDHK2 (hPDHK2) (Homo sapiens (Human), UniProt Q15119); assay: Inhibitory action of PDHK2 activity in vitro (residual PDH activity after PDHK reaction); type: biochemical; settings: PDH/hPDHK2 complex solution, PDHK reaction at room temperature for 45 min, NADH absorbance at 340 nm; read-out: kPDK2 IC50
Outline: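 Indirect assay: FLAG-tagged hPDHK2 (0.5 μg/mL) precomplexed overnight at 4 °C with PDH (0.025 U/mL), then kinase reaction with compound and ATP 45 min at room temperature, pH 7.0 MOPS buffer. Residual PDH activity measured after 90 min with pyruvate, CoA, NAD, TPP as NADH absorbance at 340 nm, corrected for compound effect on PDH-only blank.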

human PDHK1 (hPDHK1) = human PDHK1 (hPDHK1) (Homo sapiens (Human), UniProt Q15118); assay: Inhibitory action of PDHK1 activity in vitro (residual PDH activity after PDHK reaction); type: biochemical; settings: for IC50: PDH/hPDHK1 complex solution, PDHK reaction at room temperature for 45 min, NADH absorbance at 340 nm, read-out: hPDK1 IC50; for inhibition at 0.003 µM: at 3 nmol/L, shown when IC50 value could not be calculated, read-out: hPDHK1 inhibitory rate at the lowest concentration of the test compound
human PDHK1 (hPDHK1), sequence (Q15118 29-436): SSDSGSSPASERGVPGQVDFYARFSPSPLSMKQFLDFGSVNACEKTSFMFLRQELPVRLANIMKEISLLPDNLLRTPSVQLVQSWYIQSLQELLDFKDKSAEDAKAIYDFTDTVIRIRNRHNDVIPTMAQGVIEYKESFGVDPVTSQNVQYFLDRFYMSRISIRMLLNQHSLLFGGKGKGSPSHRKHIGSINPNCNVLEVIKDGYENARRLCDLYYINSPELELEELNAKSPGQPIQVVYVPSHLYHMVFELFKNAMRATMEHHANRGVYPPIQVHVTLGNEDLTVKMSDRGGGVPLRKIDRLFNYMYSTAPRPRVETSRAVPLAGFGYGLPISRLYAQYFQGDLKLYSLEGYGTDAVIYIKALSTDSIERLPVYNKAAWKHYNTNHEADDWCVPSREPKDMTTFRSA
Outline: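 N-FLAG hPDHK1 (E. coli-expressed, 0.5 μg/mL) precomplexed overnight at 4 °C with porcine heart PDH (0.025 U/mL), then reacted 45 min at room temperature with compound and ATP (0.353 μmol/L as added) in MOPS pH 7.0 buffer. Residual PDH activity after 90 min with pyruvate, CoA, NAD, TPP read as NADH at 340 nm.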

Row | Structure (SMILES) | IC50 (human PDHK2 (hPDHK2)) | IC50 (human PDHK1 (hPDHK1)) | inhibition at 0.003 µM (human PDHK1 (hPDHK1))
1 | C[C@H]1CN(C(=O)C2CCC(n3cccn3)CC2)Cc2cnc([C@@](C)(O)C(F)(F)F)n21 (some centres unmarked) [Example 60] | 9 nM | 14 nM | –
2 | C[C@H]1CN(C(=O)c2ccc(=O)n(-c3ccc(F)cc3)c2)Cc2cnc([C@@](C)(O)C(F)(F)F)n21 [Example 57] | 10 nM | 11 nM | –
3 | C[C@H]1CN(C(=O)c2ccnc(C3CC3)c2)Cc2cnc([C@@](C)(O)C(F)(F)F)n21 [Example 96] | 8 nM | 8 nM | –
4 | C[C@H]1CN(C(=O)c2nnc(C3CC3)o2)Cc2onc([C@@](C)(O)C(F)(F)F)c21 [Example 115] | 8 nM | 6 nM | –
5 | C[C@H]1CN(C(=O)c2nn(C)c(-c3ccc(C#N)cc3)c2Cl)Cc2cnc([C@@](C)(O)C(F)(F)F)n21 [Example 41] | 6 nM | 6 nM | –
6 | C[C@H]1CN(C(=O)c2ccnc(N3CCC(F)(F)CC3)c2)Cc2cnc([C@@](C)(O)C(F)(F)F)n21 [Example 95] | 15 nM | 6 nM | –
7 | C[C@H]1CN(C(=O)c2nc3ccc(F)cc3o2)Cc2cnc([C@@](C)(O)C(F)(F)F)n21 [Example 2] | 15 nM | 12 nM | –
8 | C[C@H]1CN(C(=O)C(C)(C)c2ccc(-c3nn[nH]n3)cc2)Cc2onc([C@@](C)(O)C(F)(F)F)c21 [Example 120] | 9 nM | 5 nM | –
9 | C[C@H]1CN(C(=O)c2ccnc(-c3ccc(C#N)cc3)c2F)Cc2cnc([C@@](C)(O)C(F)(F)F)n21 [Example 78] | 7 nM | 4 nM | –
10 | C[C@H]1CN(C(=O)C2CCC(n3cc(Cl)cn3)CC2)Cc2cnc([C@@](C)(O)C(F)(F)F)n21 (some centres unmarked) [Example 89] | 19 nM | 20 nM | –
11 | C[C@H]1CN(C(=O)[C@@H]2c3ccccc3CCN2C)Cc2onc([C@@](C)(O)C(F)(F)F)c21 [Example 106] | 4 nM | < 3 nM | 61%
12 | C[C@H]1CN(C(=O)c2ccc(F)c(-c3ccnn3C)c2)Cc2cnc([C@@](C)(O)C(F)(F)F)n21 [Example 64] | 7 nM | 5 nM | –
13 | C[C@H]1CN(C(=O)c2ccc(C#N)c(-n3cccn3)c2)Cc2cnc([C@@](C)(O)C(F)(F)F)n21 [Example 74] | 11 nM | 6 nM | –
14 | C[C@H]1CN(C(=O)c2ccc(C3CC3)cc2)Cc2cnc([C@@](C)(O)C(F)(F)F)n21 [Example 18] | 7 nM | 7 nM | –
15 | C[C@H]1CN(C(=O)c2cc(C3CC3)nn2C)Cc2nnc([C@@](C)(O)C(F)(F)F)n21 [Example 123] | 12 nM | 6 nM | –
16 | C[C@H]1CN(C(=O)c2ccc(C3CC3)nc2)Cc2cnc([C@@](C)(O)C(F)(F)F)n21 [Example 30] | 13 nM | 20 nM | –
17 | C[C@H]1CN(C(=O)c2ccnn2C2CC2)Cc2cnc([C@@](C)(O)C(F)(F)F)n21 [Example 32] | 10 nM | 13 nM | –
18 | C[C@H]1CN(C(=O)c2cn(C)nc2C2CC2)Cc2onc([C@@](C)(O)C(F)(F)F)c21 [Example 121] | 5 nM | 5 nM | –
19 | C[C@H]1CN(C(=O)c2c3cc(F)ccc3nn2C)Cc2cnc([C@@](C)(O)C(F)(F)F)n21 [Example 1] | 5 nM | 6 nM | –
20 | C[C@H]1CN(C(=O)c2cc(C3(C)CC3)nn2C)Cc2onc([C@@](C)(O)C(F)(F)F)c21 [Example 118] | 4 nM | 4 nM | –
21 | C[C@H]1CN(C(=O)c2ccc(F)c(C3CC3)n2)Cc2cnc([C@@](C)(O)C(F)(F)F)n21 [Example 23] | 12 nM | 6 nM | –
22 | C[C@H]1CN(C(=O)c2ccnc(-c3ccc(C#N)cc3)c2)Cc2cnc([C@@](C)(O)C(F)(F)F)n21 [Example 67] | 7 nM | 5 nM | –
23 | C[C@H]1CN(C(=O)C2(C)CN(C3CC(F)(F)C3)C2)Cc2cnc([C@@](C)(O)C(F)(F)F)n21 [Example 91] | 28 nM | 49 nM | –

Row | Structure (SMILES) | IC50 (human PDHK2 (hPDHK2)) | IC50 (human PDHK1 (hPDHK1)) | inhibition at 0.003 µM (human PDHK1 (hPDHK1))
24 | C[C@H]1CN(C(=O)c2cc(C3CC3)n[nH]2)Cc2onc([C@@](C)(O)C(F)(F)F)c21 [Example 111, (3-cyclopropyl-1H-pyrazol-5-yl)((R)-4-methyl-3-((R)-1,1,1-trifluoro-2-hydroxypropan-2-yl)-4,7-dihydroisoxazolo[5,4-c]pyridin-6(5H)-yl)methanone] | 6 nM | 3 nM | –
25 | C[C@H]1CN(C(=O)c2cc(-c3ccc(F)cc3)ncc2F)Cc2cnc([C@@](C)(O)C(F)(F)F)n21 [Example 86] | 4 nM | < 3 nM | 52%
26 | C[C@H]1CN(C(=O)c2ccc(F)c(-c3ccc(F)cn3)c2)Cc2cnc([C@@](C)(O)C(F)(F)F)n21 [Example 70] | 6 nM | 3 nM | –
27 | C[C@H]1CN(C(=O)c2cc3n(n2)CCC3)Cc2onc([C@@](C)(O)C(F)(F)F)c21 [Example 100] | 5 nM | 4 nM | –
28 | C[C@H]1CN(C(=O)c2ccc(F)c(-c3ccncc3F)c2)Cc2cnc([C@@](C)(O)C(F)(F)F)n21 [Example 82] | 7 nM | 5 nM | –
29 | C[C@H]1CN(C(=O)c2ccc(F)c(-c3ccncc3C#N)c2)Cc2cnc([C@@](C)(O)C(F)(F)F)n21 [Example 84] | 11 nM | 5 nM | –
30 | COc1ccc(-c2cc(C(=O)N3Cc4cnc([C@@](C)(O)C(F)(F)F)n4[C@@H](C)C3)no2)cc1 [Example 25] | 14 nM | 7 nM | –
31 | C[C@H]1CN(C(=O)c2cc(-c3ccc(C#N)cc3)nn2C)Cc2cnc([C@@](C)(O)C(F)(F)F)n21 [Example 31] | 11 nM | 9 nM | –
32 | C[C@H]1CN(C(=O)c2ccc(N3CCN(C)CC3)cc2)Cc2cnc([C@@](C)(O)C(F)(F)F)n21 [Example 93] | 11 nM | 8 nM | –
33 | C[C@H]1CN(C(=O)c2cc(C3CC3)n(CC(F)(F)F)n2)Cc2cnc([C@@](C)(O)C(F)(F)F)n21 [Example 37] | 8 nM | 3 nM | –
34 | C[C@H]1CN(C(=O)c2cc(-c3ccc(F)cc3)ccn2)Cc2cnc([C@@](C)(O)C(F)(F)F)n21 [Example 55] | 4 nM | < 3 nM | 54%
35 | C[C@H]1CN(C(=O)c2ccc(C#N)c(-n3cc(Cl)cn3)c2)Cc2cnc([C@@](C)(O)C(F)(F)F)n21 [Example 85] | 6 nM | < 3 nM | 49%
36 | C[C@H]1CN(C(=O)c2cc(C3CC3)nn2CC(F)(F)F)Cc2cnc([C@@](C)(O)C(F)(F)F)n21 [Example 36] | 5 nM | 4 nM | –
37 | C[C@H]1CN(C(=O)c2ccnc(-c3ccc(C#N)cc3F)c2)Cc2cnc([C@@](C)(O)C(F)(F)F)n21 [Example 62] | 4 nM | 3 nM | –
38 | C[C@H]1CN(C(=O)c2cncc(-c3ccc(F)cc3)c2)Cc2cnc([C@@](C)(O)C(F)(F)F)n21 [Example 80] | 6 nM | 3 nM | –
39 | C[C@H]1CN(C(=O)c2cnc(C3CC3)nc2)Cc2cnc([C@@](C)(O)C(F)(F)F)n21 [Example 94] | 24 nM | 40 nM | –
40 | C[C@H]1CN(C(=O)c2ccc(F)cc2C2CC2)Cc2cnc([C@@](C)(O)C(F)(F)F)n21 [Example 27] | 8 nM | 9 nM | –
41 | C[C@H]1CN(C(=O)c2ccc(C3(O)CCCC3)cc2)Cc2cnc([C@@](C)(O)C(F)(F)F)n21 [Example 52] | 6 nM | 4 nM | –
42 | C[C@H]1CN(C(=O)c2ccc(C#N)c(-c3ccc(F)cn3)c2)Cc2cnc([C@@](C)(O)C(F)(F)F)n21 [Example 77] | 9 nM | 6 nM | –
43 | C[C@H]1CN(C(=O)c2cc(-c3ccc(C#N)cc3F)nn2C)Cc2cnc([C@@](C)(O)C(F)(F)F)n21 [Example 50] | 5 nM | 4 nM | –
44 | C[C@H]1CN(C(=O)c2cc(C3CCOCC3)nn2C)Cc2cnc([C@@](C)(O)C(F)(F)F)n21 [Example 20] | 12 nM | 8 nM | –
45 | C[C@H]1CN(C(=O)c2cccc(-c3ccc(F)cc3)n2)Cc2cnc([C@@](C)(O)C(F)(F)F)n21 [Example 38] | 4 nM | < 3 nM | 73%
